In US5747235A, “Silver halide light sensitive emulsion layer having enhanced photographic sensitivity” (Eastman Kodak Company, priority 1996, dated 1998):
Structures can show the parent of a compound that is named as a salt.

Experiments:
[1] = Example 1: photographic speed and fog, 365 nm exposure, emulsion T-1; conditions: undyed; for S365: control=100
Protocol: This chemically sensitized emulsion was then used to prepare the experimental coating variations indicated in Table I. All of the experimental coating variations in Table I contained the hydroxybenzene 2,4-disulfocatechol (HB3) at a concentration of 13 mmole/mole Ag, added to the melt before the addition of any further addenda. The fragmentable electron donor compounds as indicated in Table I were added from an aqueous potassium bromide solution, or from a methanol solution, before additional water, gelatin, and surfactant were added to the emulsion melts.
(§1) For photographic evaluation, each of the coating strips was exposed for 0.1 sec to a 365 nm emission line of a Hg lamp filtered through a Kodak Wratten filter number 18A and a step wedge ranging in density from 0 to 4 density units in 0.2 density steps. The exposed film strips were developed for 6 min in Kodak Rapid X-ray Developer (KRX). S365, relative sensitivity at 365 nm, was evaluated at a density of 0.2 units above fog.

[2] = Example 7: photographic speed and fog with/without HB3, 365 nm exposure, emulsion T-2
Protocol: as §1
An AgBrI tabular silver halide emulsion (Emulsion T-2) was prepared containing 4.05% total I distributed such that the central portion of the emulsion grains contained 1.5% I and the perimeter area contained substantially higher I, as described by Chang et. al., U.S. Pat. No. 5,314,793. […] This emulsion was precipitated using deionized gelatin. The emulsion was sulfur sensitized by adding 8.5×10^-6 mole 1,3-dicarboxymethyl-1,3-dimethyl-2-thiourea /mole Ag at 40° C.; the temperature was then raised to 60° C. at a rate of 5° C./3 min and the emulsions held for 20 min before cooling to 40° C. The chemically sensitized emulsion was then used to prepare coatings containing the fragmentable two-electron donor compounds. […] Where present, the blue sensitizing dye D-I or the red sensitizing dye D-II were added from methanol solution to the emulsion at 40° C. after the chemical sensitization and disulfocatechol addition. The fragmentable two-electron donor compounds were added to the emulsion at 40° C. and the coatings were prepared and tested as described in Example 1, except that the additional gelatin used to prepare the coatings described in Table III was deionized gelatin.
Where present the blue sensitizing dye D-I or the red sensitizing dye D-II were added from methanol solution to the emulsion at 40° C. after the chemical sensitization and disulfocatechol addition. The fragmentable two-electron donating compounds were then added to the emulsion and coatings prepared as described in Example 1, except that the additional gelatin used to prepare the coatings described in Table VII was deionized gelatin. The coatings were tested for their response to a 365 nm exposure as described in Example 1.

[3] = Example 8: spectral sensitivity, cubic emulsion C-1; conditions: dye II 0.44 x10^-3, dyed control=100
Protocol: (§2) Additional testing was carried out to determine the response of the coatings described in Table III to a spectral exposure. Each of the coating strips was exposed for 0.1 sec on a wedge spectrographic instrument that covers the wavelength range from 400 to 750 nm. The instrument contains a tungsten light source and a step tablet ranging in density from 0 to 3 density units in 0.3 density steps. After developing exposed strips for 6 min in Kodak Rapid X-ray Developer (KRX), speed was read at 10 nm wavelength intervals at a density of 0.3 above fog. Correction for the instrument's variation in spectral irradiance with wavelength was done with a computer and a plot of log sensitivity vs. wavelength was generated. For this exposure, for each dye used, the relative sensitivity was set equal to 100 for the control coating with no fragmentable two-electron donor compound added.
(§3) Two cubic emulsions with uniform halide composition were precipitated using deionized gelatin. Emulsion C-1 was a AgErI emulsion with a 3% I content and a cubic edge length of 0.47 μm and emulsion C-2 was an AgBr emulsion with a cubic edge length of 0.52 μm. The emulsions were sulfur sensitized by adding 1,3-dicarboxymethyl-1,3-dimethyl-2-thiourea at 40° C.; the temperature was then raised to 60° C. at a rate of 5° C./3 min and the emulsions held for 20 min before cooling to 40° C. The amounts of the sulfur sensitizing compound used were 1.0×10^-5 mole/mole Ag for emulsion C-1, and 6.0×10^-6mole/mole Ag for emulsion C-2. These experimental coating variations contained the hydroxybenzene, 2,4-disulfocatechcol (HB3) at a concentration of 13 mmole/mole Ag, added to the melt before the addition of any further compounds. Some of the variations were then dyed with the sensitizing dye D-II, added from methanol solution. The fragmentable electron donor compounds were then added to the emulsion melts at 40° C. and coatings were prepared and tested as described in Example 1 except that the additional gelatin used to prepare the coatings described in Table VIII was deionized gelatin. Also, the dyed coatings were tested for their response to a spectral exposure as described in Example 3.

[4] = Example 8: spectral sensitivity, cubic emulsion C-2; conditions: dye II 0.40 x10^-3, dyed control=100
Protocol: as §2, §3

[5] = 0.007 x10^-3 mole/mole Ag, HB3 0, dye II 0.86 x10^-3
[6] = 0.007 x10^-3 mole/mole Ag, HB3 13 x10^-3, dye II 0.86 x10^-3
[7] = 0.007 x10^-3 mole/mole Ag, HB3 13 x10^-3, dye II 0.86 x10^-3, dyed control 68
[8] = 0.07 x10^-3 mole/mole Ag, HB3 0, dye I 0.91 x10^-3
[9] = 0.07 x10^-3 mole/mole Ag, HB3 0, no dye
[10] = 0.07 x10^-3 mole/mole Ag, HB3 0, no dye, control=100
[11] = 0.07 x10^-3 mole/mole Ag, HB3 13 x10^-3, dye I 0.91 x10^-3
[12] = 0.07 x10^-3 mole/mole Ag, HB3 13 x10^-3, dye I 0.91 x10^-3, dyed control 105
[13] = 0.07 x10^-3 mole/mole Ag, HB3 13 x10^-3, no dye
[14] = 0.07 x10^-3 mole/mole Ag, HB3 13 x10^-3, no dye, control=100

Row | Compound | Fog ([1]; 0.022 x10^-3 mole/mole Ag) | S365 ([1]; 0.022 x10^-3 mole/mole Ag) | Fog [2, 5] | Fog [2, 6] | S365 [2, 7] | Fog [2, 8] | S365 [2, 8] | Fog [2, 9] | S365 [2, 10] | Fog [2, 11] | S365 [2, 12] | Fog [2, 13] | S365 [2, 14] | also measured
1 | CCSCCN(c1ccc(C)cc1)[C@@H](C)C(=O)[O-].[Na+] [Compound S-3, N-(4-Methylphenyl)-N-(2-ethylthio-ethyl)alanine sodium salt] | 0.08 | 132 | – | – | – | – | – | – | – | – | – | – | – | Fog ([1]; 0.011 x10^-3 mole/mole Ag): 0.05; S365 ([1]; 0.011 x10^-3 mole/mole Ag): 118; Fog ([1]; 0.044 x10^-3 mole/mole Ag): 0.22; S365 ([1]; 0.044 x10^-3 mole/mole Ag): 129
2 | CCSCCN(c1ccc(C)cc1)C(CC(=O)O)C(=O)O (stereo not shown) [Compound S-8] | 0.08 | 126 | 0.21 | 0.15 | 112 | 0.12 | 155 | 0.16 | 159 | 0.12 | 120 | 0.13 | 162 | Fog ([1]; 0.07 x10^-3 mole/mole Ag): 0.13; S365 ([1]; 0.07 x10^-3 mole/mole Ag): 135; S365 [2, 5]: 110
3 | CCSCCN(c1ccccc1)C(C)C(=O)O (stereo not shown) [Compound S-9, N-(Phenyl)-N-(2-thioethyl-ethyl)alanine sodium salt] | – | – | 0.77 | 0.44 | 107 | 0.19 | 159 | 0.21 | 170 | 0.13 | 162 | 0.13 | 166 | Fog ([2]; 0.0022 x10^-3 mole/mole Ag, HB3 13 x10^-3, dye II 0.86 x10^-3): 0.24; S365 ([2]; 0.0022 x10^-3 mole/mole Ag, HB3 13 x10^-3, dye II 0.86 x10^-3, dyed control 68): 115; Sλ ([3]; 0.005 x10^-3 mol/mol Ag): 145; Sλ ([3]; 0.016 x10^-3 mol/mol Ag): 178; Sλ ([4]; 0.005 x10^-3 mol/mol Ag): 159; Sλ ([4]; 0.016 x10^-3 mol/mol Ag): 195
4 | CCSCCN(c1ccc(C(=O)O)cc1)C(C)C(=O)O (stereo not shown) [Compound S-11] | – | – | – | – | – | – | – | – | – | – | – | – | – | Sλ ([3]; 0.05 x10^-3 mol/mol Ag): 151; Sλ ([3]; 0.16 x10^-3 mol/mol Ag): 178; Sλ ([4]; 0.05 x10^-3 mol/mol Ag): 159; Sλ ([4]; 0.16 x10^-3 mol/mol Ag): 186
